Source: patent US20230151003A1, “COMPOUNDS AND METHODS OF USE” (Exelixis, Inc., priority 2020, published 2023)

Target: KDR (Homo sapiens, UniProt P35968)
Assay: KDR autophosphorylation ELISA in HUVEC cells
Type: cell-based
Set-up: endogenous in cells; host or cells: HUVEC (Lonza #C2519A)
Conditions: Table 3 Cellular Activities, VEGF165-stimulated, phospho-KDR ELISA
How it was run: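 Inhibition of VEGF165-induced KDR phosphorylation was determined in serum-starved HUVEC after 1 h compound pretreatment and 5 min stimulation with 100 ng/mL VEGF165. Lysate phospho-KDR was measured by ELISA; IC50 values came from a 4-parameter logistic fit of 8-point curves.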

KDR, sequence (P35968 20-1356): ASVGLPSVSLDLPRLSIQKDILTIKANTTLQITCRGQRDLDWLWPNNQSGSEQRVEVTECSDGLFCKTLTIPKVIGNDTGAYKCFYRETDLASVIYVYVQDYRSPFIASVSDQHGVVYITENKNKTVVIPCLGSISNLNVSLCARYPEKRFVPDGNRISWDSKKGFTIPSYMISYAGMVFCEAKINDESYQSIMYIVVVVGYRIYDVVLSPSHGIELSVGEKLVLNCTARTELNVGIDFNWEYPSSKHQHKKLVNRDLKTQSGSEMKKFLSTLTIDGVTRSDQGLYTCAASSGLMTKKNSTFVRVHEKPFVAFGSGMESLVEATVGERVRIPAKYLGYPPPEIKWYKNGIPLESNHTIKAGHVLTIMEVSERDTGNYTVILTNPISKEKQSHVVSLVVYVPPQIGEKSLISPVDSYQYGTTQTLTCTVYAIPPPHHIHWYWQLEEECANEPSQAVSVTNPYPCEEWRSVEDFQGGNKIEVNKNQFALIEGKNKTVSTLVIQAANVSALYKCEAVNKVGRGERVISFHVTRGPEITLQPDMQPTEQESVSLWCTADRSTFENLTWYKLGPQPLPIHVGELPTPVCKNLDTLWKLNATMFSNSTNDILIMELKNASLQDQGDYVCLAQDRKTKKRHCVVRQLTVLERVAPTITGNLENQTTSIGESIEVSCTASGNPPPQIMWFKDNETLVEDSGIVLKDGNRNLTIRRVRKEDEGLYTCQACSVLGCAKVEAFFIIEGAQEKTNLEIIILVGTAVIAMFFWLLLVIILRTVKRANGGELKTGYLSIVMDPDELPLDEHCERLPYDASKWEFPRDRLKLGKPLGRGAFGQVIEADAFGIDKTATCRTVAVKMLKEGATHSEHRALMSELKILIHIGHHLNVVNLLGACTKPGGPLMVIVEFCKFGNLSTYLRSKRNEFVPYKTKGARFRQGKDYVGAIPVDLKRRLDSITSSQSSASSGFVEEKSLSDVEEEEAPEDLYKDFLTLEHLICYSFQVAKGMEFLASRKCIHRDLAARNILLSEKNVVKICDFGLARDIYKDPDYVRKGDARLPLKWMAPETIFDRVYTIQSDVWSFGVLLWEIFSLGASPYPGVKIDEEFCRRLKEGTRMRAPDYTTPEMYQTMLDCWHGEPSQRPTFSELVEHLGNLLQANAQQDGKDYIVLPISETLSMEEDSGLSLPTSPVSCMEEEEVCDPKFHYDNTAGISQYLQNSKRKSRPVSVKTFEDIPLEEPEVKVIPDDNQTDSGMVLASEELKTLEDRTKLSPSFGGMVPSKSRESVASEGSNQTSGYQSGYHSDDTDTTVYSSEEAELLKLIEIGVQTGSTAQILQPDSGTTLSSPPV

| IC50 [nM] | Structure (SMILES) |
| --- | --- |
| 300 to 1000 | COc1cnc2c(Oc3ccc(NC(=O)c4cn(CCF)c(C)c(-c5ccoc5)c4=O)cc3F)ccnc2c1 [Compound 334, 1-(2-Fluoroethyl)-N-[3-fluoro-4-[(7-methoxy-1,5-naphthyridin-4-yl)oxy]phenyl]-5-(furan-3-yl)-6-methyl-4-oxopyridine-3-carboxamide] |
| ≤ 100 | COc1cc2nccc(Oc3ccc(NC(=O)c4c(C)ncc(-c5sccc5C)c4O)cc3F)c2nc1OC [Compound 126, N-[4-[(6,7-Dimethoxy-1,5-naphthyridin-4-yl)oxy]-3-fluorophenyl]-4-hydroxy-2-methyl-5-(3-methylthiophen-2-yl)pyridine-3-carboxamide] |
| ≤ 100 | COc1cc2nccc(Oc3ccc(NC(=O)c4c(C)ncc(-c5cc(C)cs5)c4O)cc3F)c2nc1OC [Compound 125, N-[4-[(6,7-Dimethoxy-1,5-naphthyridin-4-yl)oxy]-3-fluorophenyl]-4-hydroxy-2-methyl-5-(4-methylthiophen-2-yl)pyridine-3-carboxamide] |
| 300 to 1000 | COc1cnc2c(Oc3ccc(NC(=O)c4cn(CCF)c(C)c(-c5ccsc5)c4=O)cc3F)ccnc2c1 [Compound 330, 1-(2-Fluoroethyl)-N-[3-fluoro-4-[(7-methoxy-1,5-naphthyridin-4-yl)oxy]phenyl]-6-methyl-4-oxo-5-thiophen-3-ylpyridine-3-carboxamide] |
| ≤ 100 | COc1cc2nccc(Oc3ccc(NC(=O)c4c(C)nc(C)c(-c5ccc(C)s5)c4O)cc3F)c2nc1OC [Compound 111, N-[4-[(6,7-Dimethoxy-1,5-naphthyridin-4-yl)oxy]-3-fluoro-phenyl]-4-hydroxy-2,6-dimethyl-5-(5-methyl-2-thienyl)pyridine-3-carboxamide] |
| 300 to 1000 | COc1cc2nccc(Oc3ccc(NC(=O)c4c(C)n(C)c(C)c(-c5ccco5)c4=O)cc3)c2nc1OC [Compound 164, N-[4-[(6,7-Dimethoxy-1,5-naphthyridin-4-yl)oxy]phenyl]-5-(furan-2-yl)-1,2,6-trimethyl-4-oxopyridine-3-carboxamide] |
| ≤ 100 | COc1cc2nccc(Oc3ccc(NC(=O)c4c(C)ncc(-c5cccs5)c4O)cc3F)c2nc1OC [Compound 123, N-[4-[(6,7-Dimethoxy-1,5-naphthyridin-4-yl)oxy]-3-fluorophenyl]-4-hydroxy-2-methyl-5-thiophen-2-ylpyridine-3-carboxamide] |
| ≤ 100 | COc1cc2nccc(Oc3ccc(NC(=O)c4cnc(C)c(-c5cc(C)cs5)c4O)cc3F)c2nc1OC [Compound 91, N-[4-[(6,7-Dimethoxy-1,5-naphthyridin-4-yl)oxy]-3-fluoro-phenyl]-4-hydroxy-6-methyl-5-(4-methyl-2-thienyl) pyridine-3-carboxamide] |
| ≤ 100 | COc1cc2nccc(Oc3ccc(NC(=O)c4c(C)nc(C)c(-c5cccs5)c4O)cc3F)c2nc1OC [Compound 107] |
| ≤ 100 | COc1cc2nccc(Oc3ccc(NC(=O)c4cnc(C)c(-c5ccc(C)o5)c4O)cc3F)c2nc1OC [Compound 92, N-[4-[(6,7-Dimethoxy-1,5-naphthyridin-4-yl)oxy]-3-fluoro-phenyl]-4-hydroxy-6-methyl-5-(5-methyl-2-furyl)pyridine-3-carboxamide] |
| 300 to 1000 | COc1cnc2c(Oc3ccc(NC(=O)c4c(C)n(C)c(C)c(-c5cccs5)c4=O)cc3)ccnc2c1 [Compound 165, N-[4-[(7-Methoxy-1,5-naphthyridin-4-yl)oxy]phenyl]-1,2,6-trimethyl-4-oxo-5-thiophen-2-ylpyridine-3-carboxamide] |
| ≤ 100 | COc1cc2nccc(Oc3ccc(NC(=O)c4cnc(C)c(-c5cc(C)nn5C)c4O)cc3F)c2nc1OC [Compound 136, N-[4-[(6,7-Dimethoxy-1,5-naphthyridin-4-yl)oxy]-3-fluorophenyl]-5-(2,5-dimethylpyrazol-3-yl)-4-hydroxy-6-methylpyridine-3-carboxamide] |
| ≤ 100 | COc1cc2nccc(Oc3ccc(NC(=O)c4cnc(C)c(-c5nccs5)c4O)cc3F)c2nc1OC [Compound 143, N-[4-[(6,7-Dimethoxy-1,5-naphthyridin-4-yl)oxy]-3-fluorophenyl]-4-hydroxy-6-methyl-5-(1,3-thiazol-2-yl)pyridine-3-carboxamide] |
| ≤ 100 | C=C(C)c1ccc(-c2c(C)ncc(C(=O)Nc3ccc(Oc4ccnc5cc(OC)c(OC)nc45)c(F)c3)c2O)o1 [Compound 152, N-[4-[(6,7-Dimethoxy-1,5-naphthyridin-4-yl)oxy]-3-fluorophenyl]-4-hydroxy-6-methyl-5-(5-prop-1-en-2-ylfuran-2-yl)pyridine-3-carboxamide] |
| ≤ 100 | COCc1nc(C)c(-c2cccs2)c(O)c1C(=O)Nc1ccc(Oc2ccnc3cc(OC)c(OC)nc23)c(F)c1 [Compound 115, N-[4-[(6,7-Dimethoxy-1,5-naphthyridin-4-yl)oxy]-3-fluorophenyl]-4-hydroxy-2-(methoxymethyl)-6-methyl-5-thiophen-2-ylpyridine-3-carboxamide] |
| ≤ 100 | COc1cc2nccc(Oc3ccc(NC(=O)c4c(C)nc(C)c(-c5cc(C(F)(F)F)nn5C)c4O)cc3F)c2nc1OC [Compound 138] |
| 300 to 1000 | COc1cnc2c(Oc3ccc(NC(=O)c4cn(CCF)c(C)c(-c5cccs5)c4=O)cc3F)ccnc2c1 [Compound 331, 1-(2-Fluoroethyl)-N-[3-fluoro-4-[(7-methoxy-1,5-naphthyridin-4-yl)oxy]phenyl]-6-methyl-4-oxo-5-thiophen-2-ylpyridine-3-carboxamide] |
